Laboratory results taken from patent publication US10065990B2, “Cyclic peptide compound, and preparation method, pharmaceutical composition and use thereof” (HANGZHOU GUANYU BIO-MEDICAL CO., LTD, priority 2013, dated 2018).
pIC50: −log10 of the molar value. Where two headings read alike, the source gives them in different places.

Legend:
[1] = biological target: HDAC2 (Homo sapiens, UniProt Q92769); experiment: HDAC biochemical activity measurement (fluorescent substrate deacetylation);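 also: HDAC2 enzyme with an acetyl-lysine fluorescent substrate, then developer added, fluorescence read at excitation 360 nm and emission 460 nm, inhibition measured across several compound concentrations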; conditions: 37° C. 30 minutes
[2] = biological target: T1, HDAC11 (Homo sapiens, UniProt Q96DB2); experiment: as above;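 also: HDAC11 enzyme acting on an acetyl-lysine fluorogenic substrate, then a developer frees the fluorophore, read at excitation 360 nm and emission 460 nm, IC50 over a compound dilution series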
T1 sequence (Q96DB2 1-347): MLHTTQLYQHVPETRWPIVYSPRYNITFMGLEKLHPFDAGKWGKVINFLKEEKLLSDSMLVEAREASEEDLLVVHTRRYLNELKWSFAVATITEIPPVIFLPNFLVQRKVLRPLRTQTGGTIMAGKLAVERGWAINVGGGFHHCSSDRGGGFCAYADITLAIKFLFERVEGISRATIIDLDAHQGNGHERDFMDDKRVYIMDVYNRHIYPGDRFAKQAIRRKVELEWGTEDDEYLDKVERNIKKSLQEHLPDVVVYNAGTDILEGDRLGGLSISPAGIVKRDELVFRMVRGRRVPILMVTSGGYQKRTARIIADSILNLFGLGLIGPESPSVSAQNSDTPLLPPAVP

[3] = tested on: MOLT-4 (human acute lymphoblastic leukemia cells); experiment: MTT cancer cell growth inhibition; assay type: cell-based; conditions: Homo sapiens, MOLT-4, 72 h, MTT
Procedure, shortened: (§1)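 Read-out was formazan absorbance at 570 nm after a 4 h MTT step and DMSO solubilisation, converted to cell viability and fitted for GI50. Beforehand, cells (1500/well, overnight attachment) were treated with compound at 10^−5 to 10^−10 M for 72 h at 37° C.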

[4] = tested on: U937 (human leukemia cells); experiment: MTT cancer cell growth inhibition; assay type: cell-based; conditions: Homo sapiens, U-937, 72 h, MTT
Procedure, shortened: as §1

[5] = tested on: lncap (prostate cancer cells); experiment: MTT cancer cell growth inhibition; assay type: cell-based; conditions: Homo sapiens, LNCaP, 72 h, MTT
Procedure, shortened: as §1

[6] = tested on: H1975 (non-small cell lung adenocarcinoma); experiment: MTT cancer cell growth inhibition; assay type: cell-based; conditions: Homo sapiens, NCI-H1975, 72 h, MTT, 72 hours incubation, H1975 cells; read-out: GI50 H1975
Procedure, shortened: as §1

[7] = tested on: DU145 (human prostate cancer cells); experiment: MTT cancer cell growth inhibition; assay type: cell-based; conditions: Homo sapiens, DU-145, 72 h, MTT
Procedure, shortened: as §1

[8] = tested on: PANC-1 (Pac-1, human pancreatic cancer cells); experiment: MTT cancer cell growth inhibition; assay type: cell-based; conditions: Homo sapiens, PANC-1, 72 h, MTT
Procedure, shortened: as §1

[9] = tested on: MCF-7 (human breast cancer cells); experiment: MTT cancer cell growth inhibition; assay type: cell-based; conditions: Homo sapiens, MCF7, 72 h
Procedure, shortened: as §1

[10] = tested on: Bel-7402 (human hepatoma cells); experiment: MTT cancer cell growth inhibition; assay type: cell-based; conditions: Homo sapiens, Bel-7402, 72 h, MTT, 72 hours incubation, Bel-7402 cells; read-out: GI50 Bel-7402
Procedure, shortened: as §1

[11] = tested on: HCC827 (human non-small cell lung cancer cells); experiment: MTT cancer cell growth inhibition; assay type: cell-based; conditions: Homo sapiens, HCC827, 72 h, MTT, 72 hours incubation, HCC827 cells; read-out: GI50 HCC827
Procedure, shortened: as §1

[12] = tested on: K562 (human leukemia cells); experiment: MTT cancer cell growth inhibition; assay type: cell-based; conditions: Homo sapiens, K562, 72 h, MTT, 72 hours incubation, K562 cells; read-out: GI50 K562
Procedure, shortened: as §1

[13] = tested on: A549 (human lung cancer cells); experiment: MTT cancer cell growth inhibition; assay type: cell-based; conditions: Homo sapiens, A549, 72 h, MTT
Procedure, shortened: as §1

[14] = 72 hours incubation, read-out: GI50 Mol
[15] = 72 hours incubation, read-out: GI50 U93
[16] = 72 hours incubation, read-out: GI50 lnca
[17] = 72 hours incubation, read-out: GI50 Du1
[18] = 72 hours incubation, read-out: GI50 PAN
[19] = 72 hours incubation, read-out: GI50 MCF
[20] = 72 hours incubation, read-out: GI50 A54
[21] = read-out: IC50 HDAC11, HDAC11, 37° C. 30 minutes
[22] = MOLT-4 cells, 72 hours incubation, read-out: GI50 Mol
[23] = 72 hours, present invention, read-out: GI50 Molt-4, a
[24] = 72 hours, present invention, read-out: GI50 U937, a
[25] = U937 cells, 72 hours incubation, read-out: GI50 U93
[26] = 72 hours, present invention, read-out: GI50 lncap, a
[27] = lncap cells, 72 hours incubation, read-out: GI50 lnca
[28] = DU145 cells, 72 hours incubation, read-out: GI50 Du1
[29] = 72 hours, present invention, read-out: GI50 Du145, a
[30] = 72 hours, present invention, read-out: GI50 PANC-1, a
[31] = PANC-1 cells, 72 hours incubation, read-out: GI50 PAN
[32] = 72 hours, present invention, read-out: GI50 MCF7, a
[33] = MCF-7 cells, 72 hours incubation, read-out: GI50 MCF
[34] = A549 cells, 72 hours incubation, read-out: GI50 A54
[35] = 72 hours, present invention, read-out: GI50 A549, a

Sequence of HDAC2 (Q92769 whole entry, species assumed): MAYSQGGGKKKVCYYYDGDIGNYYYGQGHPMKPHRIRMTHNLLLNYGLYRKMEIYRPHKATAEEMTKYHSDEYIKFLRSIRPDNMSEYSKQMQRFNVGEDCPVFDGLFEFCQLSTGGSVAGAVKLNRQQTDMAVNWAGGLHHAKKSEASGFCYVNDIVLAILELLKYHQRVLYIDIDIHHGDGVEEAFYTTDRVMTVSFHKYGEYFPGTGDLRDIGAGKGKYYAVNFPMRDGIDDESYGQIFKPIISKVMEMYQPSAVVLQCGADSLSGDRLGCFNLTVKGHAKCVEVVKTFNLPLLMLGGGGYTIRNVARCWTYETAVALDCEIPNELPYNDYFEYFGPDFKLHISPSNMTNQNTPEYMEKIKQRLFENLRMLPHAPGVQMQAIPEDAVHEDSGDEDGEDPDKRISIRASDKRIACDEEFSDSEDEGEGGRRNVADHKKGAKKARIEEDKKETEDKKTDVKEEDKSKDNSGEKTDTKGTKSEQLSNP

Row | Structure (SMILES) | pIC50 [1] | pIC50 [2] | GI50 [3, 14] | GI50 [4, 15] | GI50 [5, 16] | GI50 [6] | GI50 [7, 17] | GI50 [8, 18] | GI50 [9, 19] | GI50 [10] | GI50 [11] | GI50 [12] | GI50 [13, 20] | pIC50 [2, 21] | GI50 [3, 22] | GI50 [4, 25] | GI50 [5, 27] | GI50 [7, 28] | GI50 [8, 31] | GI50 [9, 33] | also measured
1 | C/C=C1\NC(=O)c2ccc(F)c(n2)CNC(=O)C[C@@H](/C=C/CCSC(=O)CCCCCCC)OC(=O)[C@H](C)NC1=O [Example 62] | 7.57 | 7.10 | 30 nM | 20 nM | 30 nM | 26 nM | 10 nM | 80 nM | 60 nM | 83 nM | 83 nM | 16 nM | 40 nM |  |  |  |  |  |  |  | 
2 | C/C=C1\NC(=O)c2cccc(n2)CNC(=O)C[C@@H](/C=C/CCSC(=O)CCCCCCC)OC(=O)[C@@H](C)NC1=O [Compound 236] | 7.42 |  |  |  |  | 72 nM |  |  |  | 75 nM | 26 nM | 73 nM |  | 7.14 | 860 nM | 70 nM | 50 nM | 90 nM | 210 nM | 760 nM | GI50 [3, 23]: 860 nM; GI50 [4, 24]: 77 nM; GI50 [5, 26]: 530 nM; GI50 [7, 29]: 91 nM; GI50 [8, 30]: 210 nM; GI50 [9, 32]: 760 nM; GI50 [13, 34]: 510 nM; GI50 [13, 35]: 510 nM
3 | C/C=C1\NC(=O)c2cccc(n2)CNC(=O)C[C@@H](/C=C/CCSC(C)=O)OC(=O)[C@H](Cc2ccccc2)NC1=O [Compound 13] | 6.58 |  | 20 nM | 80 nM | 100 nM | 53 nM | 20 nM | 70 nM | 300 nM | 85 nM | 29 nM | 25 nM | 50 nM | 7.03 |  |  |  |  |  |  | 
4 | C/C=C1\NC(=O)c2cc(SC)cc(n2)CNC(=O)C[C@@H](/C=C/CCSC(=O)CCCCCC)OC(=O)[C@H](C(C)C)NC1=O [Compound 151] | 7.62 | 7.02 |  |  |  | 58 nM |  |  |  | 26 nM | 38 nM | 67 nM |  |  | 90 nM | 40 nM | 70 nM | 40 nM | 40 nM | 40 nM | GI50 [13, 34]: 40 nM
5 | C/C=C1\NC(=O)c2cc(F)cc(n2)CNC(=O)C[C@@H](/C=C/CCSC(=O)CCCC)OC(=O)[C@H](C(C)C)NC1=O [Compound 40] | 7.28 |  | 30 nM | 40 nM | 30 nM | 43 nM | 40 nM | 70 nM | 50 nM | 74 nM | 74 nM | 41 nM | 40 nM | 7.02 |  |  |  |  |  |  | 
6 | C/C=C1\NC(=O)c2ccc(F)c(n2)CNC(=O)C[C@@H](/C=C/CCSC(=O)CCCCCCC)OC(=O)[C@H](Cc2ccccc2)NC1=O [Example 71] | 7.54 | 7.02 | 20 nM | 50 nM | 20 nM | 51 nM | 60 nM | 80 nM | 20 nM | 84 nM | 84 nM | 63 nM | 30 nM |  |  |  |  |  |  |  | 
7 | C/C=C1\NC(=O)c2nc(ccc2F)CNC(=O)C[C@@H](/C=C/CCSC(=O)CCCCCCC)OC(=O)[C@H](C)NC1=O [Example 60] | 7.43 | 7.06 | 10 nM | 40 nM | 10 nM | 42 nM | 20 nM | 50 nM | 80 nM | 57 nM | 57 nM | 27 nM | 40 nM |  |  |  |  |  |  |  | 
8 | C/C=C1\NC(=O)c2cc(F)cc(n2)CNC(=O)C[C@@H](/C=C/CCSC=O)OC(=O)[C@H](C(C)C)NC1=O [Compound 52] | 7.21 |  | 30 nM | 60 nM | 30 nM | 61 nM | 20 nM | 90 nM | 60 nM | 91 nM | 91 nM | 27 nM | 50 nM | 6.97 |  |  |  |  |  |  | 
9 | C=C1NC(=O)c2cccc(n2)CNC(=O)C[C@@H](/C=C/CCSC(=O)CCCCCCC)OC(=O)[C@H](C(C)C)NC1=O [Compound 244] | 7.28 |  |  |  |  | 73 nM |  |  |  | 29 nM | 28 nM | 53 nM |  | 7.43 | 110 nM | 890 nM | 990 nM | 950 nM | 770 nM | 330 nM | GI50 [3, 23]: 110 nM; GI50 [4, 24]: 890 nM; GI50 [5, 26]: 990 nM; GI50 [7, 29]: 950 nM; GI50 [8, 30]: 770 nM; GI50 [9, 32]: 330 nM; GI50 [13, 34]: 120 nM; GI50 [13, 35]: 120 nM
